Measurements taken from ChEMBL document CHEMBL1147616, “DNA binding of a short lexitropsin” (Bioorg Med Chem Lett, 2004).

Test system: Nucleic Acid
Assay: Compound was evaluated for its binding activity to the DNA AT-rich sites
Format: nucleic-acid assay

Row | SMILES | Binding activity
1 | CN(C)CCCNC(=O)c1cc(NC(=O)c2cc(NC(=O)c3cc(NC=O)cn3C)cn2C)cn1C | 3 µM
2 | CC(C)n1cc(NC(=O)c2cc(NC=O)cn2C)cc1C(=O)Nc1cc(C(=O)NCCCN(C)C)n(C)c1 | 0.3 µM
